Assay results from patent US12497392B2, “EP300/CBP inhibitor” (HINOVA PHARMACEUTICALS INC., priority 2019, dated 2025).
pIC50: −log10 of the molar value. Read-outs that look alike come from different tables or passages of the source.

Experiments:
OPM-2 = experiment: Proliferation of OPM-2 multiple myeloma cells (CCK-8); format: cell-based; details: multiple myeloma cell line OPM-2, read-out: IC50 against OPM-2
Procedure: (§1) • (1) CWR22RV1 prostate cancer cells were subcultured in cell culture medium, and well-grown cells were inoculated into 96-well plates with 80 μL per well and 1500 cells per well, and then the plate was cultured overnight at 37° C. in a 5% CO2 incubator. • (2) Drug was prepared as 30 mM of stock solution with dimethylsulfoxide (DMSO). Prior to use, the stock solution was diluted in a ratio of 1:3 with DMSO and then further diluted in a ratio of 1:3 to obtain 9 gradient concentrations. Each concentration of compound was diluted in a ratio of 1:200 with culture medium (to ensure the concentration of DMSO in the culture system was 0.1%). Two wells were set for each concentration. 20 μL of diluted compound solution was added to the cell culture well (with a final concentration of 10 μM, 3.3 μM, 1.1 μM, etc.), and then the plate was gently shaken to mix well. In addition, three negative control wells containing only cells and three blank control wells containing only culture medium (6 wells being each added with DMSO diluted in a ratio of 1:200 using 20 μL of culture medium) were included. 2. Test Results: • (1) After the plate was cultured for 6 days, 10 μL of CCK-8 was added to each well, and then the plate was continually cultured in a 5% CO2 incubator at 37° C. for 2.5 h. • (2) The absorbance (OD value) was measured at 450 nm with a microplate reader. • (3) Data were analyzed using the Dose-response-inhibition equation in the software GraphPad Prisms 6 to obtain IC50 values. 3. Experimental Results
(§2) Using the same method as in Example 2, CWR22RV1 cells were replaced with tumor cells in Table 3, and for the inhibitory activities against these tumor cells, the IC50 values (nM) of the compounds according to the present invention were tested and calculated.

MCF-7 = experiment: Proliferation of MCF-7 breast cancer cells (CCK-8); format: cell-based; details: breast cancer cell line MCF-7, read-out: IC50 against MCF-7
Procedure: as §1, §2

LNCAP = experiment: Proliferation of LNCAP prostate cancer cells (CCK-8); format: cell-based; details: prostate cancer cell line LNCAP, read-out: IC50 against LNCAP
Procedure: as §1, §2

CWR22RV1 cells [1] = experiment: Proliferation of prostate cancer CWR22RV1 cells (CCK-8, 6 days); format: cell-based
Procedure: as §1

LNCAP-AR = experiment: Proliferation of LNCAP-AR prostate cancer cells (CCK-8); format: cell-based; details: prostate cancer cell line LNCAP-AR; read-out: IC50 against LNCAP-AR
Procedure: as §1, §2

VCAP = experiment: Proliferation of VCAP prostate cancer cells (CCK-8); format: cell-based; details: prostate cancer cell line VCAP, read-out: IC50 against VCAP
Procedure: as §1, §2

MOLM-16 = experiment: Proliferation of MOLM-16 leukemia cells (CCK-8); format: cell-based; details: leukemia cell line MOLM-16, read-out: IC50 against MOLM-16
Procedure: as §1, §2

MCF-7 cells = experiment: Combination with CDK4/6 inhibitor palbociclib, proliferation of MCF-7 breast cancer cells; format: cell-based; details: for pIC50: Homo sapiens, read-out: IC50 against MCF-7 cells
Procedure: (§3) Prior to use, the stock solution was diluted in a ratio of 1:3 with DMSO and then further diluted in a ratio of 1:3 to obtain 9 gradient concentrations. Each concentration of compound was diluted in a ratio of 1:200 with culture medium (to ensure the concentration of DMSO in the culture system was 0.1%). Two wells were set for each concentration. 20 μL of diluted compound solution was added to the cell culture well (with a final concentration of 10 μM, 3.3 μM, 1.1 μM, etc.); the stock solution of palbociclib was diluted with the culture medium as 500 nM, 150 nM, 50 nM, 5 nM, respectively, and then 20 μL of diluted palbociclib solution was added to the cell culture well ([…]). The plate was gently shaken to mix well. In addition, three negative control wells containing only cells and three blank control wells containing only culture medium (6 wells being each added with DMSO diluted in a ratio of 1:200 using 20 μL of culture medium) were included. 2. Test Results: • (1) After the plate was cultured for 6 days, 10 μL of CCK-8 was added to each well, and then the plate was continually cultured in a 5% CO2 incubator at 37° C. for 2.5 h. • (2) The absorbance (OD value) was measured at 450 nm with a microplate reader. • (3) Data were analyzed using the Dose-response-inhibition equation in the software GraphPad Prisms 6 to obtain IC50 values. 3. Experimental Results
Using the same method as in Example 4, CWR22RV1 cells were replaced with MCF-7 cells, and for the inhibitory activities against the proliferation of MCF-7 cells, the IC50 values (nM) of the compounds according to the present invention, palbociclib, and the combination of the compound according to the present invention and palbociclib were tested and calculated.

CWR22RV1 cells [2] = experiment: Combination with CDK4/6 inhibitor palbociclib, proliferation of CWR22RV1 prostate cancer cells; format: cell-based; details: for pIC50: read-out: IC50 against CWR22RV1 cells
Procedure: as §3

CBP BRD = CBP BRD (Homo sapiens (Human), UniProt Q92793); experiment: CBP AlphaScreen bromodomain (BRD) binding test
Chain of CBP BRD (Q92793 1085-1192): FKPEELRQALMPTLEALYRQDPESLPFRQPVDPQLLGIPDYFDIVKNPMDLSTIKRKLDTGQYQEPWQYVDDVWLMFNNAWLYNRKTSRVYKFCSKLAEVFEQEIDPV
Procedure: (§4) CBP and EP300AlphaScreen Test:
(§5) • 1. Prepare 1× concentration of test buffer • 2. Preparation of compound
(§6) The compound was firstly diluted in a ratio of 1:1000 relative to the final concentration using a Precision automatic sampler (by 3× gradient dilution method): • 1) 50 μL of compound solution with a storage concentration of 10 mM was transferred to A2 well of a 96-well plate using an Echo automatic sampler. • 2) 30 μL of DMSO was transferred to well A1, and wells A3 to A12 with Precision™. • 3) 15 μL solution was transferred from A2 to A3 by Precision, and this operation was sequentially repeated until 15 μL solution was transferred from well A10 to well A11. Thus, a 1:3 gradient dilution was completed. • 4) The compound plate was centrifuged at a speed of 1000 r/min for one minute. • 3. Preparation of test plate
(§7) 20 nL of solution was transferred from each concentration well of the compound plate to the test plate using an Echo automatic sampler: from well A1 of the preparation plate to wells A1 and A2 of the test plate, and from well A2 of the preparation plate to wells A3 and A4 of the test plate. • 4. Binding test of bromodomain (BRD) • 1) Preparation of 2-fold solution of protein and polypeptide
(§8) The protein and polypeptide were dissolved in a 1× concentration of detection buffer. • 2) 10 μL of protein and polypeptide solution was transferred to each well in columns 3 to 24 in the test plate, and 10 μL of 1× test buffer was transferred to wells in columns 1 to 2 in the test plate as negative control. • 3) The test plate was centrifuged at a speed of 1000 r/min for one minute. • 4) The test plate was incubated at room temperature for 15 min. • 5) A 2-fold receptor and donor solution was prepared by dissolving acceptor and donor beads with one-fold test buffer. • 6) 2-fold receptor and donor solutions were transferred to the test plate.
(§9) 15 μL of acceptor and donor solution was added and light was avoided. • 7) The test plate was centrifuged at a speed of 1000 r/min for one minute and then incubated at room temperature for 60 min. • 5. The Endpoints were Read in EnSpire and Alpha Modes. • 6. Curve fitting
(§10) The experimental data was entered into an Excel document and the inhibition rate Inh % was calculated using equation (1): Inh %=(Max−Signal)/(Max−Min)×100 Equation (1): wherein, Max: control containing DMSO, Min: low control containing DMSO,
(§11) The obtained data were entered into the XL-Fit software, and the IC50 value was calculated using equation (2): Y=Bottom+(Top−Bottom)/(1+10^((Log IC50−X)×Hill Slope)) Equation (2): II. Experimental Results

EP300 BRD = EP300 BRD (Homo sapiens (Human), UniProt Q09472); experiment: EP300 AlphaScreen bromodomain (BRD) binding test
Chain of EP300 BRD (Q09472 1049-1156): as the sequence (Q92793 1085-1192) above, with N47S, V73I, F93Y, A98S counted along it
Procedure: as §4, §5, §6, §7, §8, §9, §10, §11

[3] = CWR22Rv1, 144 h, 6 days, CCK-8, class symbols, read-out: IC50 against CWR22RV1 cells
[4] = compound 172 + palbociclib, in words

Molecule	pIC50 (LNCAP-AR)	pIC50 (OPM-2; Homo sapiens)	pIC50 (MCF-7; Homo sapiens, MCF7)	pIC50 (LNCAP; Homo sapiens)	pIC50 (CBP BRD)	pIC50 (EP300 BRD)	pIC50 (CWR22RV1 cells [1]; [3])	pIC50 (VCAP; Homo sapiens)	pIC50 (MOLM-16; MOLM16)	also measured
(S)-4-(3,4-difluorophenyl)-5-(5-(3,5-dimethylisoxazol-4-yl)-1-((trans)-4-deuteromethoxycyclohexyl)-1H-benzo[d]imidazol-2-yl)morphine-3-one [Compound 113]	> 6.30	–	–	–	–	–	–	–	–	pIC50 (OPM-2): > 6.30; pIC50 (MCF-7): > 6.30; pIC50 (LNCAP): > 6.30; pIC50 (CWR22RV1 cells [1]; 6 days, CCK-8, bound stated, read-out: IC50 against CWR22RV1 prostate cancer cells): > 6.30; pIC50 (CWR22RV1 cells [1]; 6 days, CCK-8, class symbols, read-out: IC50 against CWR22RV1 cells): > 6.30; pIC50 (VCAP): > 6.30; pIC50 (MOLM-16): > 6.30
CC(=O)c1c(C)c2cnc(Nc3ccc(N4CCNCC4)cn3)nc2n(C2CCCC2)c1=O [palbociclib, reference compound]	–	–	–	–	–	–	–	–	–	pIC50 (MCF-7 cells; MCF7, administrated alone): 4.89; pIC50 (CWR22RV1 cells [2]; CWR22Rv1, administrated alone): 7.00
CCO[C@H]1CC[C@H](n2c([C@@H]3CCOC(=O)N3c3ccc(F)c(F)c3)nc3cc(-c4c(C)noc4C)ccc32)CC1 [Compound 171, (S)-3-(3,4-difluorophenyl)-4-(5-(3,5-dimethylisoxazol-4-yl)-1-((trans)-4-ethoxycyclohexyl)-1H-benzo[d]imidazol-2-yl)-1,3-oxazinane-2-one]	> 6.30	> 6.30	> 6.30	> 6.30	8.74	8.62	5.70 to 6.30	> 6.30	> 6.30	–
CCO[C@H]1CC[C@H](n2c([C@@H]3CCOC(=O)N3c3ccc(Cl)c(F)c3)nc3cc(-c4c(C)noc4C)ccc32)CC1 [Compound 172, (S)-3-(4-chloro-3-fluorophenyl)-4-(5-(3,5-dimethylisoxazol-4-yl)-1-((trans)-4-ethoxycyclohexyl)-1H-benzo[d]imidazol-2-yl)-1,3-oxazinane-2-one]	> 6.30	> 6.30	> 6.30	> 6.30	8.64	8.68	5.70 to 6.30	> 6.30	> 6.30	pIC50 (MCF-7 cells; MCF7, 172 in combination with 10 nM palbociclib): 7.57; pIC50 (MCF-7 cells; MCF7, 172 in combination with 100 nM palbociclib): 8.05; pIC50 (MCF-7 cells; MCF7, 172 in combination with 300 nM palbociclib): 8.15; pIC50 (MCF-7 cells; MCF7, 172 in combination with 100-300 nM of palbociclib): > 8.00; pIC50 (MCF-7 cells; MCF7, administrated alone): 7.14; effect of combination with palbociclib on MCF-7 breast cancer cells (MCF-7 cells; [4]): synergistic inhibitory effect; pIC50 (CWR22RV1 cells [2]; CWR22Rv1, 172 in combination with 10 nM palbociclib): 7.59; pIC50 (CWR22RV1 cells [2]; CWR22Rv1, 172 in combination with 100 nM palbociclib): > 9.00; pIC50 (CWR22RV1 cells [2]; CWR22Rv1, 172 in combination with 100-300 nM of palbociclib): > 9.00; pIC50 (CWR22RV1 cells [2]; CWR22Rv1, administrated alone): 5.82; effect of combination with palbociclib on CWR22RV1 prostate cancer cells (CWR22RV1 cells [2]; [4]): synergistic inhibitory effect
CO[C@H]1C[C@@H](n2c([C@@H]3CCOC(=O)N3c3ccc(F)c(F)c3)nc3cc(-c4c(C)noc4C)ccc32)C1 [Compound 143]	–	–	–	–	8.33	8.57	5.70 to 6.30	–	–	–
COc1cccc(-c2nc3cc(-c4c(C)noc4C)ccc3n2[C@H]2CC[C@H](OC)CC2)c1-c1ccc(F)cc1 [Compound 141]	–	–	–	–	7.66	8.02	< 5.70	–	–	–
CO[C@H]1CC[C@H](n2c([C@@H]3CCOC(=O)N3c3ccc(Cl)c(F)c3)nc3cc(-c4c(C)noc4C)ccc32)CC1 [Compound 117, (S)-3-(3-fluoro-4-chlorophenyl)-4-(5-(3,5-dimethylisoxazol-4-yl)-1-((trans)-4-methoxycyclohexyl)-1H-benzo[d]imidazol-2-yl)-1,3-oxazinane-2-one]	> 6.30	> 6.30	> 6.30	> 6.30	9.15	9.14	> 6.30	> 6.30	> 6.30	pIC50 (CWR22RV1 cells [1]; CWR22Rv1, 144 h, 6 days, CCK-8, bound stated, read-out: IC50 against CWR22RV1 prostate cancer cells): > 6.30
CO[C@H]1CC[C@H](n2c([C@H]3COCC(=O)N3c3ccc(F)c(F)c3)nc3cc(-c4c(C)noc4C)ccc32)CC1 [Compound 112, (S)-4-(3,4-difluorophenyl)-5-(5-(3,5-dimethylisoxazol-4-yl)-1-((trans)-4-methoxycyclohexyl)-1H-benzo[d]imidazol-2-yl)morphine-3-one]	–	–	–	–	8.70	8.77	–	–	–	pIC50 (CWR22RV1 cells [1]; CWR22Rv1, 144 h, read-out: IC50 against CWR22RV1 cells): > 6.30; pIC50 (CWR22RV1 cells [1]; CWR22Rv1, 144 h, read-out: IC50 against CWR22RV1 prostate cancer cells): > 6.30
CO[C@H]1CC[C@H](n2c([C@@H]3CCOCC(=O)N3c3ccc(F)c(F)c3)nc3cc(-c4c(C)noc4C)ccc32)CC1 [Compound 106]	–	–	–	–	8.32	8.66	5.70 to 6.30	–	–	–
